pEC50: −log10 of the molar value. Where two headings read alike, the source gives them in different places.
Key:
[1] = IV and PO single dose pharmacokinetic studies in SD rats; format: in vivo; settings: male, Sprague-Dawley, rat, plasma, IV infusion 1 mg/kg vs oral gavage 2 mg/kg, read-out: Rat % F
Experimental: IV and PO Single Dose Pharmacokinetic Studies in SD Rats: The pharmacokinetics of selected compounds was characterized in male Sprague-Dawley (SD) rats (250-300g). […] The intravenous (IV) dosing vehicle was 5% ethanol, 35% polyethylene glycol 400 (PEG 400) and 60% water pH 2.0. […] Serial blood samples (approximately 0.3 mL each) were collected from jugular vein or other suitable vein at specified time points. […] The blood samples were collected into Vacutainer™ tubes containing EDTA-K3 as the anti-coagulant and were centrifuged at approximately 4° C. to obtain plasma. The plasma samples were stored at −20° C. until analysis by LC/MS/MS. A bioanalytical method utilizing high performance liquid chromatography coupled to tandem mass spectrometry (LC/MS/MS) was developed for analysis of the selected compound in rat plasma. Detection was performed using selected reaction monitoring (SRM); […] Standard curve and quality control samples were prepared in male rat plasma and processed in the same way as the test samples to generate quantitative data. Pharmacokinetic parameters were generated using non-compartmental pharmacokinetic analysis (Phoenix WinNonlin, version 6.3). Values below the lower limit of quantification (LLOQ) were assigned a value of zero if predose and treated as missing thereafter. Area under the curve (AUC) was calculated using the linear trapezoidal rule. The oral bioavailability (% F) was determined by comparison of the area under the curve (AUC) of the compound and/or a metabolite generated in plasma following oral administration to that generated following intravenous administration.

[2] = tested on: stable HCV 1a RLuc replicon cells (genotype 1a H77 replicon); assay: microbe, parasite or virus in culture; format: cell-based; settings: Hepatitis C virus; for pEC50: read-out: 1a; for EC50: read-out: 1a (nM)
[3] = tested on: NS5A chimeric genotype 2a JFH-1 replicon with genotype 2a J6 strain NS5A gene (M31 present); assay: microbe, parasite or virus in culture; format: cell-based, HCV; settings: Hepatitis C virus; for pEC50: read-out: 2a J6
[4] = tested on: NS5A chimeric genotype 1b Con1 replicon with genotype 3a S52 strain NS5A gene; assay: microbe, parasite or virus in culture; format: cell-based, HCV; settings: Hepatitis C virus; for pEC50: read-out: 3a; for EC50: read-out: 3a (nM)
Method in brief: (§1)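 Genotype 3a (S52) and 4a (ED43) NS5A chimeras use 1b Con1 Pi-RLuc replicons, transfected transiently; 2b MD2b-1 NS5A chimera (M31) uses 2a JFH-1 RLuc-Neo replicon, transient or stable.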

[5] = tested on: NS5A chimeric genotype 2a JFH-1 replicon with genotype 2b MD2b-1 strain NS5A gene (M31 present); assay: microbe, parasite or virus in culture; format: cell-based, HCV; settings: Hepatitis C virus; for pEC50: read-out: 2b
Method in brief: as §1

[6] = tested on: stable HCV 2a JFH-1 Rluc replicon cells (L31 present in NS5A); assay: microbe, parasite or virus in culture; format: cell-based; settings: Hepatitis C virus; for pEC50: read-out: 2a JFH; for EC50: read-out: 2a JFH (nM)
[7] = tested on: 1a Pi-Rluc replicon with Q30R in genotype 1a NS5A; assay: microbe, parasite or virus in culture; format: cell-based, HCV; settings: Hepatitis C virus; for pEC50: read-out: 1a Q30R; for EC50: read-out: 1a Q30R (nM)
Method in brief: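 Q30R introduced by site-directed mutagenesis into genotype 1a Pi-RLuc replicon; RNA transiently transfected into Huh-7-derived cured-51 cells.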

[8] = tested on: stable HCV 1b RLuc replicon cells (genotype 1b Con1 replicon); assay: microbe, parasite or virus in culture; format: cell-based; settings: Hepatitis C virus, read-out: 1b (nM)
[9] = tested on: NS5A chimeric genotype 1b Con1 replicon with genotype 4a ED43 strain NS5A gene; assay: microbe, parasite or virus in culture; format: cell-based, HCV; settings: Hepatitis C virus; for pEC50: read-out: 4a

| SMILES | bioavailability [1] | pEC50 [2] | EC50 [2] | pEC50 [3] | EC50 ([3]; read-out: 2a Jb (t) (nM)) | pEC50 [4] | EC50 [4] | pEC50 [5] | EC50 ([5]; read-out: 2b (s) (nM)) | EC50 ([5]; read-out: 2b (t) (nM)) | pEC50 [6] | EC50 [6] | pEC50 [7] | EC50 [7] | EC50 [8] | EC50 ([3]; read-out: 2a J6 (s) (nM)) | pEC50 [9] | EC50 ([9]; read-out: 4a (s) (nM)) | EC50 ([9]; read-out: 4a (t) (nM)) |
| --- | --- | --- | --- | --- | --- | --- | --- | --- | --- | --- | --- | --- | --- | --- | --- | --- | --- | --- | --- |
| COC(=O)N[C@H](C(=O)N1[C@@H](C)CC[C@H]1c1ncc(-c2ccc3c(c2)COc2cc4c(ccc5nc([C@@H]6C[C@H](C)CN6C(=O)[C@H](NC(=O)OC)c6ccccc6)[nH]c54)cc2-3)[nH]1)C(C)C [Compound 617] | 14.4% | > 9.00 | 0.009 nM | > 9.00 | 0.032 nM | > 9.00 | 0.019 nM | > 9.00 | 0.011 nM | 0.013 nM | > 9.00 | 0.004 nM | > 9.00 | 0.024 nM | – | – | – | – | – |
| COC(=O)N[C@H](C(=O)N1CCC[C@H]1c1ncc(-c2ccc3c(c2)COc2cc4c(cc2-3)CCc2[nH]c([C@@H]3CCCN3C(=O)[C@@H](NC(=O)OC)C(C)C)nc2-4)[nH]1)C(C)C [Example ME] | – | > 9.00 | 0.033 nM | 8.30 to 9.00 | 3.43 nM | > 9.00 | 0.015 nM | > 9.00 | 0.701 nM | 0.198 nM | > 9.00 | 0.012 nM | 7.36 to 9.00 | 2.51 nM | 0.049 nM | 16.1 nM | > 9.00 | 0.029 nM | 0.016 nM |
| COC(=O)N[C@H](C(=O)N1CCC[C@H]1c1nc2c([nH]1)CCc1cc3c(cc1-2)OCc1cc(-c2cnc([C@@H]4CCCN4C(=O)[C@H](NC(=O)OC)c4ccccc4)[nH]2)ccc1-3)C(C)C [Example MF, methyl[1-(2-{5-[2-(1-{[(methoxycarbonyl)amino]-3-methyl-1-oxobutan-2-yl}pyrrolidin-2-yl)-1,4,5,11-tetrahydroisochromeno[4′,3′:6,7]naphtho[1,2-d]imidazol-9-yl]-1H-imidazol-2-yl}pyrrolidin-1-yl)-phenyl-1-oxoacet-2-yl]carbamate] | – | > 9.00 | 0.059 nM | > 9.00 | 0.476 nM | > 9.00 | 0.011 nM | > 9.00 | 0.083 nM | – | > 9.00 | 0.012 nM | > 9.00 | 0.768 nM | 0.058 nM | 2.14 nM | > 9.00 | – | 0.025 nM |
| COC(=O)N[C@H](C(=O)N1CCC[C@H]1c1ncc(-c2ccc3c(c2)COc2cc4c(cc2-3)CCc2[nH]c([C@@H]3CCCN3C(=O)[C@H](NC(=O)OC)c3ccccc3)nc2-4)[nH]1)C(C)C [Example MG] | – | > 9.00 | 0.054 nM | > 9.00 | 0.337 nM | > 9.00 | 0.01 nM | > 9.00 | 0.07 nM | – | > 9.00 | 0.012 nM | > 9.00 | 0.663 nM | 0.055 nM | 2.29 nM | > 9.00 | 0.08 nM | 0.024 nM |
| COC[C@H]1C[C@@H](c2ncc(-c3ccc4c(c3)COc3cc5c(ccc6nc([C@@H]7C[C@H]8C[C@H]8N7C(=O)[C@H](NC(=O)OC)c7ccccc7)[nH]c65)cc3-4)[nH]2)N(C(=O)[C@@H](NC(=O)OC)C(C)C)C1 [Example MV] | – | > 9.00 | 0.01 nM | > 9.00 | 0.047 nM | > 9.00 | 0.011 nM | > 9.00 | – | 0.041 nM | > 9.00 | 0.004 nM | > 9.00 | 0.012 nM | 0.014 nM | 0.034 nM | > 9.00 | 0.011 nM | – |
| COC[C@H]1C[C@@H](c2ncc(-c3ccc4c(c3)COc3cc5c(ccc6nc([C@@H]7C[C@H](C)CN7C(=O)[C@@H](NC(=O)OC)C(C)C)[nH]c65)cc3-4)[nH]2)N(C(=O)[C@H](NC(=O)OC)c2ccccc2)C1 [Example NM, Methyl {(1R)-2-[(2S,4S)-2-(5-{2-[(2S,4S)-1-{(2S)-2-[(methoxycarbonyl)amino]-3-methylbutanoyl}-4-methylpyrrolidin-2-yl]-1,11-dihydroisochromeno[4′,3′:6,7]naphtho[1,2-d]imidazol-9-yl}-1H-imidazol-2-yl)-4-(methoxymethyl)pyrrolidin-1-yl]-2-oxo-1-phenylethyl}carbamate] | 6.93% | > 9.00 | 0.011 nM | > 9.00 | 0.012 nM | > 9.00 | 0.024 nM | > 9.00 | – | 0.013 nM | > 9.00 | 0.006 nM | > 9.00 | 0.028 nM | – | – | – | – | – |
| COC[C@H]1C[C@@H](c2ncc(-c3ccc4c(c3)COc3cc5c(cc3-4)CCc3nc([C@@H]4CC[C@H](C)N4C(=O)[C@@H](NC(=O)OC)C(C)C)[nH]c3-5)[nH]2)N(C(=O)[C@H](NC(=O)OC)c2ccccc2)C1 [Example OH, methyl {(1R)-2-[(2S,4S)-2-(5-{2-[(2S,5S)-1-{(2S)-2-[(methoxycarbonyl)amino]-3-methylbutanoyl}-5-methylpyrrolidin-2-yl]-1,4,5,11-tetrahydroisochromeno[4′,3′:6,7]naphtho[1,2-d]imidazol-9-yl}-1H-imidazol-2-yl)-4-(methoxymethyl)pyrrolidin-1-yl]-2-oxo-1-phenylethyl}carbamate] | 22.7% | > 9.00 | 0.016 nM | > 9.00 | 0.054 nM | > 9.00 | 0.026 nM | > 9.00 | 0.022 nM | 0.023 nM | > 9.00 | 0.007 nM | > 9.00 | 0.031 nM | – | – | – | – | – |
| COC[C@H]1C[C@@H](c2nc3ccc4cc5c(cc4c3[nH]2)OCc2cc(-c3cnc([C@@H]4CC[C@H](C)N4C(=O)[C@@H](NC(=O)OC)C(C)C)[nH]3)ccc2-5)N(C(=O)[C@@H](NC(=O)OC)[C@@H](C)OC)C1 [Example OM, Methyl {(2S)-1-[(2S,4S)-2-(5-{2-[(2S,5S)-1-{(2S,3R)-3-methoxy-2-[(methoxycarbonyl)amino]butanoyl}-4-(methoxymethyl)pyrrolidin-2-yl]-1,11-dihydroisochromeno[4′,3′:6,7]naphtho[1,2-d]imidazol-9-yl}-1H-imidazol-2-yl)-5-methylpyrrolidin-1-yl]-3-methyl-1-oxobutan-2-yl}carbamate] | 12.2% | > 9.00 | 0.014 nM | > 9.00 | 0.045 nM | > 9.00 | 0.035 nM | > 9.00 | 0.054 nM | 0.053 nM | > 9.00 | 0.009 nM | > 9.00 | 0.035 nM | – | – | – | – | – |
| COC[C@H]1C[C@@H](c2nc3c([nH]2)-c2cc4c(cc2CC3)-c2ccc(-c3cnc([C@@H]5CC[C@H](C)N5C(=O)[C@@H](NC(=O)OC)C(C)C)[nH]3)cc2CO4)N(C(=O)[C@H](NC(=O)OC)c2ccccc2)C1 [Example OP, Methyl {(1R)-2-[(2S,4S)-2-(9-{2-[(2S,5S)-1-{(2S)-2-[(methoxycarbonyl)amino]-3-methylbutanoyl}-5-methylpyrrolidin-2-yl]-1H-imidazol-5-yl}-1,4,5,11-tetrahydroisochromeno[4′,3′:6,7]naphtho[1,2-d]imidazol-2-yl)-4-(methoxymethyl)pyrrolidin-1-yl]-2-oxo-1-phenylethyl}carbamate] | 15.1% | > 9.00 | 0.013 nM | > 9.00 | 0.018 nM | > 9.00 | 0.027 nM | > 9.00 | 0.007 nM | 0.011 nM | > 9.00 | 0.008 nM | > 9.00 | 0.026 nM | – | – | – | – | – |
